We go through one substance from US5013724A, “Process for the sulfation of glycosaminoglycans, the sulfated glycosaminoglycans and their biological applications” (Sanofi Societe Anonyme, priority 1986, dated 1991).

For test [1], the system named is factor IIa (thrombin). The test can be described thus: inhibitory activity towards factor IIa (thrombin) in the presence of AT-III. The test is classed as biochemical. The note with it: Experiment 1. The protocol:
(§1) (b) inhibitory activity towards the activated factor II (factor IIa) or thrombin.
(§2) The results are expressed in μg of product per ml.
(§3) In this model system, the inhibition of factor IIa is determined by measuring the IC 50 of the test substances in the presence of AT-III and HC II.

For test [2], the system named is factor IIa (thrombin). The test can be described thus: inhibitory activity towards factor IIa (thrombin) in the presence of HC II. The test is classed as biochemical. The note with it: Experiment 1. The protocol:
as §1, §2, §3

In another test the test system is blood coagulation. Description: coagulation time by the APTT method. The test is classed as biochemical. The conditions noted are these: Experiment 1. The protocol:
(c) measurement of the coagulation time by the APTT method (as described in Caen, J., Larrieu, M. J., and Samama, in Hemostase, paris, Expansion Scientifique Francaise, 1968, pp 133-135).
In the present instance, the concentration of the product to be tested necessary for a doubling of the coagulation time is determined.
The result is expressed in μg of substance tested per ml.

The test system of a further test is thrombus formation. The test can be described thus: anti-thrombotic activity in vivo in the rabbit, Wessler model (human thromboplastin as thrombogenic agent). The note with it: dose of 100 μg/kg. The protocol: (d) anti-thrombotic activity in vivo in the rabbit, according to the model of Wessler (such as that described by Wessler, S., Reimer, S. M. and Sheps, M. C., in J. Appl. Physiol. 14 (6), 943-946, 1959).
The test substance is injected into the carotid artery, at doses varying from 10 to 500 μg/kg, 3 mn before the administration of the thrombogenic agent (human thromboplastin).
The result is expressed as percentage of inhibition of thrombus formation.

Another test relates to plasma. Description: additional experiments in plasma on cofactor dependence.

As to Dermatan sulfate, in the test with factor IIa (thrombin) [1], the “Anti-IIa activity, AT-III, IC 50” value came out at 100 µg/mL. In the test on factor IIa (thrombin) [2], the “Anti-IIa activity, HC II, IC 50” value was 5.8 µg/mL. For the same substance, the “activity in the APTT model (in words)” value in the test with blood coagulation was “sursulfation increases the activity”. In addition, the “Concentration necessary to double the coagulation time” value in the test on blood coagulation (APTT method) was found to be 50 µg/mL. The “prevention of thrombus formation” value with thrombus formation is listed as ~40%. In the test with plasma, the “cofactor dependence of the action in plasma” value is listed as “totally dependent on HC 11”.
